Reference: patent publication US20230391772A1, “METHODS AND COMPOSITIONS FOR TARGETED PROTEIN DEGRADATION” (Ranok Therapeutics (Hangzhou) Co. Ltd., priority 2020, published 2023)

Experiments:
HSP90a protein = target: T1, HSP90a protein (Homo sapiens, UniProt P07900); test: HSP90α-binding fluorescent polarization (FP) assay, BODIPY-labeled RNK04010 probe; conditions: FP competition with RNK04010 (BODIPY-labeled), 5 nM, 300 min at 25° C.
T1 construct: purchased BPS Bioscience 50298
How it was run: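 Displacement of a 5 nM fluorescent HSP90 ligand from the N-terminal HSP90a domain by FP. Incubation ran at 25° C: 120 min for the FITC-geldanamycin tracer, 300 min for the BODIPY-conjugated triazolone RNK04010.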

[1] = system: MIA PaCa-2 human pancreatic carcinoma; test: MIA PaCa-2 CCK-8 proliferation assay; assay type: cell-based; conditions: MIA PaCa-2 cells
How it was run: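 Percent inhibition derived from CCK-8 optical signal, normalised between DMSO-only cells (0%) and cell-free medium containing DMSO as background. Cells: MIA PaCa-2 carrying 2 KRAS(G12C) copies; NCI-H358, NCI-H23 carrying 1 copy apiece. Concentrations spanned 1.02 nM–20 μM in threefold increments.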

KRAS(G12C) [2] = target: T2, KRAS(G12C) (Homo sapiens, UniProt P01116, G12C); test: KRAS(G12C)/SOS1 homogeneous time-resolved fluorescence (HTRF) assay; design: purchased Cisbio 63ADK000CB16PEG; conditions: absence of GTP, 4° C. for 3 hr, read-out: KRAS (G12C) binding
How it was run: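 HTRF kit measuring compound-induced block of KRAS(G12C)-SOS1 interaction without GTP. Compounds tested as 3-fold serial dilutions down to 1.02 nM, incubated with reaction components 3 h at 4 °C in sealed plates before fluorescence read.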

KRAS(G12C) [3] = target: T2, KRAS(G12C); test: KRAS(G12C) Western blot protein degradation assay in LU65A cells; assay type: cell-based; design: LU65A human lung cancer cell line, which expresses KRAS(G12C); host or cells: LU65A; conditions: 6 hr
How it was run: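 Cells treated with compound at various concentrations at 37 °C for 48 hr (MIA PaCa-2) or 6 hr (LU65A), then lysed in RIPA. Protein-normalized lysates immunoblotted for KRAS with β-actin, fluorescence quantified; DC50 is the concentration giving 50% of maximal KRAS degradation.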

T2 sequence (P01116 1-188 isoform P01116-2 G12C): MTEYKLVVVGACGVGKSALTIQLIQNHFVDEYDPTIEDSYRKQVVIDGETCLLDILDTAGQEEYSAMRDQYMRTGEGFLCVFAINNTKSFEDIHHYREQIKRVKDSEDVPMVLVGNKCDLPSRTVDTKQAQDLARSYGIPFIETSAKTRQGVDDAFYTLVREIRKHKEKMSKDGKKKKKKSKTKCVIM

| IC50 (HSP90a protein) | EC50 ([1]; Homo sapiens, MIA PaCa-2, 72 h) | IC50 (KRAS(G12C) [2]) | DC50 (KRAS(G12C) [3]) | EC50 ([1]; 72 hr) | Structure (SMILES) |
| --- | --- | --- | --- | --- | --- |
| < 100 nM | > 1000 nM | < 100 nM | > 1000 nM | – | C=CC(=O)N1CCN(c2nc(OCC3CN(Cc4ccc(-n5c(O)nnc5-c5cc(C)c(O)cc5O)cc4)C3)nc3c2CCN(c2cccc4cccc(Cl)c24)C3)C[C@@H]1CC#N [Compound 232, (S)-2-(1-acryloyl-4-(7-(8-chloronaphthalen-1-yl)-2-((1-(4-(3-(2,4-dihydroxy-5-methylphenyl)-5-hydroxy-4H-1,2,4-triazol-4-yl)benzyl)azetidin-3-yl)methoxy)-5,6,7,8-tetrahydropyrido[3,4-d]pyrimidin-4-yl)piperazin-2-yl)acetonitrile] |
| < 100 nM | 100 to 1000 nM | < 100 nM | > 1000 nM | – | C=CC(=O)N1CCN(c2nc(OC[C@@H]3C[C@H](C(=O)N4CC5(CCN(Cc6ccc(-n7c(O)nnc7-c7cc(C(C)C)c(O)cc7O)cc6)CC5)C4)CN3C)nc3c2CCN(c2cccc4cccc(Cl)c24)C3)C[C@@H]1CC#N [Compound 230, 2-[(2S)-4-[7-(8-chloronaphthalen-1-yl)-2-{[(2S,4S)-4-[7-({4-[3-(2,4-dihydroxy-5-isopropylphenyl)-5-hydroxy-1,2,4-triazol-4-yl]phenyl}methyl)-2,7-diazaspiro[3.5]nonane-2-carbonyl]-1-methylpyrrolidin-2-yl]methoxy}-5H,6H,8H-pyrido[3,4-d]pyrimidin-4-yl]-1-(prop-2-enoyl)piperazin-2-yl]acetonitrile] |
| < 100 nM | > 1000 nM | 100 to 1000 nM | > 1000 nM | – | C=CC(=O)N1CCN(c2nc(OCC3CN(Cc4ccc(-n5c(O)nnc5-c5cc(C(C)C)c(O)cc5O)cc4)C3)nc3c2CCN(c2cccc4cccc(Cl)c24)C3)C[C@@H]1CC#N [Compound 231, (S)-2-(1-acryloyl-4-(7-(8-chloronaphthalen-1-yl)-2-((1-(4-(3-(2,4-dihydroxy-5-isopropylphenyl)-5-hydroxy-4H-1,2,4-triazol-4-yl)benzyl)azetidin-3-yl)methoxy)-5,6,7,8-tetrahydropyrido[3,4-d]pyrimidin-4-yl)piperazin-2-yl)acetonitrile] |
| < 100 nM | 100 to 1000 nM | < 100 nM | > 1000 nM | – | C=CC(=O)N1CCN(c2nc(OC[C@@H]3C[C@H](N4CCC(C(=O)N5CCN(Cc6ccc(-n7c(C(=O)NC)nnc7-c7cc(C(C)C)c(O)cc7O)cc6)CC5)CC4)CN3C)nc3c2CCN(c2cccc4cccc(Cl)c24)C3)C[C@@H]1CC#N [Compound 234, 4-{4-[(4-{1-[(3S,5S)-5-({[7-(8-chloronaphthalen-1-yl)-4-[(3S)-3-(cyanomethyl)-4-(prop-2-enoyl)piperazin-1-yl]-5H,6H,8H-pyrido[3,4-d]pyrimidin-2-yl]oxy}methyl)-1-methylpyrrolidin-3-yl]piperidine-4-carbonyl}piperazin-1-yl)methyl]phenyl}-5-(2,4-dihydroxy-5-isopropylphenyl)-N-methyl-1,2,4-triazole-3-carboxamide] |
| < 100 nM | 100 to 1000 nM | < 100 nM | > 1000 nM | – | C=CC(=O)N1CCN(c2nc(OC[C@@H]3C[C@H](N4CCC5(CCN(Cc6ccc(-n7c(O)nnc7-c7cc(C)c(O)cc7O)cc6)CC5)CC4)CN3C)nc3c2CCN(c2cccc4cccc(Cl)c24)C3)C[C@@H]1CC#N [Compound 228, 2-[(2S)-4-[7-(8-chloronaphthalen-1-yl)-2-{[(2S,4S)-4-[9-({4-[3-(2,4-Dihydroxy-5-methylphenyl)-5-hydroxy-1,2,4-triazol-4-yl]phenyl}methyl)-3,9-diazaspiro[5.5]undecan-3-yl]-1-methylpyrrolidin-2-yl]methoxy}-5H,6H,8H-pyrido[3,4-d]pyrimidin-4-yl]-1-(prop-2-enoyl)piperazin-2-yl]acetonitrile] |
| – | 100 to 1000 nM | < 100 nM | > 1000 nM | – | C=CC(=O)N1CCN(c2nc(OC[C@@H]3CC[C@H](CN4CCN(C(=O)C5CCN(Cc6ccc(-n7c(O)nnc7-c7cc(CC)c(O)cc7O)cc6)CC5)CC4)N3C)nc3c2CCN(c2cccc4cccc(Cl)c24)C3)C[C@@H]1CC#N [Compound 245, 2-[(2S)-4-[7-(8-chloronaphthalen-1-yl)-2-{[(2S,5R)-5-({4-[1-({4-[3-(5-ethyl-2,4-di hydroxyphenyl)-5-hydroxy-1,2,4-triazol-4-yl]phenyl}methyl)piperidine-4-carbonyl]piperazin-1-yl}methyl)-1-methylpyrrolidin-2-yl]methoxy}-5H,6H,8H-pyrido [3,4-d]pyrimidin-4-yl]-1-(prop-2-enoyl)piperazin-2-yl]acetonitrile] |
| – | 100 to 1000 nM | < 100 nM | > 1000 nM | – | C=CC(=O)N1CCN(c2nc(OC[C@@H]3C[C@H](N4CCC(C(=O)N5CCN(Cc6ccc(-n7c(O)nnc7-c7cc(C(C)C)c(O)cc7O)cc6)CC5)CC4)CN3C)nc3c2CCN(c2cccc4ccccc24)C3)C[C@@H]1CC#N [Compound 246, 2-[(2S)-4-(2-{[(2S,4S)-4-{4-[4-({4-[3-(2,4-dihydroxy-5-isopropylphenyl)-5-hydro-xy-1,2,4-triazol-4-yl]phenyl}methyl)piperazine-1-carbonyl]piperidin-1-yl}-1-methylpyrrolidin-2-yl]methoxy}-7-(naphthalen-1-yl)-5H,6H,8H-pyrido[3,4-d]pyrimidin-4-yl)-1-(prop-2-enoyl)piperazin-2-yl]acetonitrile] |
| – | < 100 nM | 100 to 1000 nM | > 1000 nM | – | C=C(F)C(=O)N1CCN(c2nc(OC[C@@H]3CC[C@H](CN4CCN(Cc5ccc(-n6c(C(=O)NCC)nnc6-c6cc(C(C)C)c(O)cc6O)cc5)CC4)N3C)nc3c2CCN(c2cccc4ccccc24)C3)C[C@@H]1CC#N [Compound 287, 4-{4-[(4-{[(2R,5S)-5-[({4-[(3S)-3-(cyanomethyl)-4-(2-fluoroprop-2-enoyl)piperazin-1-yl]-7-(naphthalen-1-yl)-5H,6H,8H-pyrido[3,4-d]pyrimidin-2-yl}oxy)methyl]-1-methylpyrrolidin-2-yl]methyl}piperazin-1-yl)methyl]phenyl}-5-(2,4-dihydroxy-5-isopropylphenyl)-N-ethyl-1,2,4-triazole-3-carboxamide] |
| – | < 100 nM | < 100 nM | 100 to 1000 nM | – | C=CC(=O)N1CCN(c2nc(OC[C@@H]3CC[C@H](CN4CCN(C(=O)C5CCN(Cc6ccc(-n7c(C(=O)NCC)nnc7-c7cc(C(C)C)c(O)cc7O)cc6)CC5)CC4)N3C)nc3c2CCN(c2cccc4cccc(Cl)c24)C3)C[C@@H]1CC#N [Compound 240, 4-(4-{[4-(4-{[(2R,5S)-5-({[7-(8-chloronaphthalen-1-yl)-4-[(3S)-3-(cyanomethyl)-4-(prop-2-enoyl)piperazin-1-yl]-5H,6H,8H-pyrido[3,4-d]pyrimidin-2-yl]oxy}methyl)-1-methylpyrrolidin-2-yl]methyl}piperazine-1-carbonyl)piperidin-1-yl]methyl}phenyl)-5-(2,4-dihydroxy-5-isopropylphenyl)-N-ethyl-1,2,4-triazole-3-carboxamide] |
| – | – | < 100 nM | > 1000 nM | 100 to 1000 nM | C=CC(=O)N1CCN(c2nc(OCCN3CCC(C(=O)N4CCN(Cc5ccc(-n6c(C(=O)NCC(F)(F)F)nnc6-c6cc(C)c(O)cc6O)cc5)CC4)CC3)nc3c2CCN(c2cccc4cccc(Cl)c24)C3)C[C@@H]1CC#N [Compound 251, (S)-4-(4-((4-(1-(2-((4-(4-acryloyl-3-(cyanomethyl)piperazin-1-yl)-7-(8-chloronaphthalen-1-yl)-5,6,7,8-tetrahydropyrido[3,4-d]pyrimidin-2-yl)oxy)ethyl)piperidine-4-carbonyl)piperazin-1-yl)methyl)phenyl)-5-(2,4-dihydroxy-5-methylphenyl)-N-(2,2,2-trifluoroethyl)-4H-1,2,4-triazole-3-carboxamide] |
| – | 100 to 1000 nM | < 100 nM | < 100 nM | – | C=CC(=O)N1CCN(c2nc(OC[C@@H]3C[C@H](N4CCN(C(=O)C5CCN(Cc6ccc(-n7c(C(=O)NCC)nnc7-c7cc(C(C)C)c(O)cc7O)cc6)CC5)CC4)CN3C)nc3c2CCN(c2cccc4cccc(Cl)c24)C3)C[C@@H]1CC#N [Compound 283, 4-{4-[(4-{4-[(3S,5S)-5-({[7-(8-chloronaphthalen-1-yl)-4-[(3S)-3-(cyanomethyl)-4-(prop-2-enoyl)piperazin-1-yl]-5H,6H,8H-pyrido[3,4-d]pyrimidin-2-yl]oxy}methyl)-1-methylpyrrolidin-3-yl]piperazine-1-carbonyl}piperidin-1-yl)methyl]phenyl}-5-(2,4-dihydroxy-5-isopropylphenyl)-N-ethyl-1,2,4-triazole-3-carboxamide] |
